Measurements taken from patent US20260344673A1, “A SOLID FORM FOR PREPARATION OF AN AQUEOUS DISPERSION, AQUEOUS DISPERSION, STABLE CONCENTRATE, COMBINED AQUEOUS DISPERSION, AND USES THEREOF” (priority 2022, published 2026).

Columns and labels:
[1] = test system: Colletotrichum gloeosporioides; test: Kirby-Bauer disk diffusion test, Colletotrichum gloeosporioides; conditions: Colletotrichum gloeosporioides; for % mycelium growth relative to the control / mycelium growth: V8 medium; for mycelium growth: control 5.4 cm; for EFFICACY W (Abbot): control W=0, no growth W=100
Experimental: (§1) The microbiological tests were carried out by applying Kirby-Bauer Disk Diffusion Susceptibility Test Protocol for antimicrobial activity. It is based on the formation of a concentration gradient in the growth medium during the diffusion of the active substance from the antibiogram disc (Kirby-Bauer method).
(§2) The performance of the embodiments of the present inventions and their mixtures enriched with millbase (MFA) was analysed against the appropriate reference substance, i.e., a commercial product containing the analogue active substance with the same concentration. The prepared solutions were applied on the paper antibiograms. Then the soaked antibiograms were placed on the Petri Dishes (dish diameter 90 mm) with the growth medium for fungal pathogens V8. Composition of V8: agar, calcium carbonate and multi-vegetable juice. 3 fragments of mycelium of the tested pathogen (5×5 mm) were transplanted onto the prepared medium. As a result, the zones where the fungal growth was inhibited have been measured and compared respectively with the control sample and the analogue active substance sample.
(§3) Assessment was carried out by determining the infested area of the Petri dish in %. These percentages have been converted into efficacy (W) according to Abbot's formula as follows: W=(1−α/β)×100 • where: • α—corresponds to the mycelium/bacterial growth of each tested sample [%], • β—corresponds to the mycelium/bacterial growth in control sample [%].
(§4) In order to estimate if the combined action effect with the commercial fungicide, the W parameter of the mixture was compared with W parameter for particular commercial fungicide solo. Where W=0 the efficacy of the control sample (whole Petri dish covered with mycelium), and W=100 is when no mycelium growth observed.

[2] = test system: Monilinia fructigena; test: Kirby-Bauer disk diffusion test, Monilinia fructigena; conditions: for % mycelium growth relative to the control / mycelium growth: V8 medium; for mycelium growth: control 5.4 cm; for EFFICACY W (Abbot): control W=0, no growth W=100
Experimental: as §2, §3, §4

[3] = test system: Venturia inaegualis; test: Kirby-Bauer disk diffusion test, Venturia inaequalis; conditions: for EFFICACY W (Abbot): control W=0, no growth W=100
Experimental: as §1, §2, §3, §4

[4] = test system: Botrytis cinerea; test: Kirby-Bauer disk diffusion test, Botrytis cinerea; conditions: for % mycelium growth relative to the control / mycelium growth: V8 medium; for mycelium growth: control 8.6 cm; for EFFICACY W (Abbot): control W=0, no growth W=100
Experimental: as §2, §3, §4

[5] = test system: Phytophthora cactorum; test: Kirby-Bauer disk diffusion test, Phytophthora cactorum; set-up: % mycelium growth relative to the control: concentration or dose not given beside the values; conditions: for % mycelium growth relative to the control / mycelium growth: V8 medium; for mycelium growth: control 5.4 cm; for EFFICACY W (Abbot): control W=0, no growth W=100
Experimental: as §2, §3, §4

[6] = test system: Phytophthora megasperma; test: Kirby-Bauer disk diffusion test, Phytophthora megasperma; conditions: Phytophthora megasperma; for % mycelium growth relative to the control / mycelium growth: V8 medium; for mycelium growth: control 5.4 cm (8.6 cm in Table 25); for EFFICACY W (Abbot): control W=0, no growth W=100
Experimental: as §1, §2, §3, §4

[7] = test system: Phytium ultimum; test: Kirby-Bauer disk diffusion test, Phytium ultimum
Experimental: as §2, §3, §4

[8] = test system: Fusarium oxysporum; test: Kirby-Bauer disk diffusion test, Fusarium oxysporum; conditions: Fusarium oxysporum
Experimental: as §1, §2, §3, §4

[9] = test system: Fusarium graminearum
[10] = test system: Septoria nodorum (1291); test: Kirby-Bauer disk diffusion test, Septoria nodorum (1291)
Experimental: as §2, §3, §4

[11] = test system: Alternaria infectoria/alternata; test: Kirby-Bauer disk diffusion test, Alternaria infectoria/alternata
Experimental: as §2, §3, §4

[12] = test system: Verticillium longisporum; test: Kirby-Bauer disk diffusion test, Verticillium longisporum
Experimental: as §2, §3, §4

[13] = test system: Rhizoctonia solani; test: Kirby-Bauer disk diffusion test, Rhizoctonia solani
Experimental: as §2, §3, §4

[14] = test system: Septoria tritici; test: Kirby-Bauer disk diffusion test, Septoria tritici
Experimental: as §2, §3, §4

[15] = test system: Sclerotinia sclerotiorum; test: Kirby-Bauer disk diffusion test, Sclerotinia sclerotiorum
Experimental: as §2, §3, §4

[16] = test system: Fusarium equiseti; test: Kirby-Bauer disk diffusion test, Fusarium equiseti
Experimental: as §2, §3, §4

[17] = Venturia inaegualis, V8 medium, control 2.9 cm

## O=C1C2CC=CCC2C(=O)N1SC(Cl)(Cl)Cl (stereo not drawn) [Captan (1500)]
[1]
  % mycelium growth relative to the control: 11%
  mycelium growth: 0.6 cm
  EFFICACY W (Abbot): 89
[2]
  % mycelium growth relative to the control: 33%
  mycelium growth: 1.8 cm
  EFFICACY W (Abbot): 67
[3]; Venturia inaegualis, V8 medium
  % mycelium growth relative to the control: 38%
[3]; [17]
  mycelium growth: 1.1 cm
[3]; Venturia inaegualis
  EFFICACY W (Abbot): 62
[4]
  % mycelium growth relative to the control: 70%
  mycelium growth: 6 cm
  EFFICACY W (Abbot): 30

## Cc1ccc(-c2c(Cl)nc(C#N)n2S(=O)(=O)N(C)C)cc1 [Cyazofamid (80)]
[5]
  % mycelium growth relative to the control: 63%
  mycelium growth: 3.4 cm
  EFFICACY W (Abbot): 37
[6]
  % mycelium growth relative to the control: 100%
  mycelium growth: 5.4 cm
  EFFICACY W (Abbot): 0
[7]; V8 medium
  % mycelium growth relative to the control: 66%
[7]; V8 medium, control 8.6 cm
  mycelium growth: 5.7 cm
[7]; control W=0, no growth W=100
  EFFICACY W (Abbot): 76

## CCCCCCCCCCCCNC(=N)N [Dodine, dodine, reference compound]
[3]; Venturia, dodine 680 g/L, read-out: % mycelium growth relative to the control
  activity at 680000 µg/mL: 55%
[3]; Venturia, dodine 680 g/L, read-out: EFFICACY W (Abbot)
  inhibition of growth at 680000 µg/mL (stock): 45%
[3]; dodine 680 g/L
  mycelium growth: 1.6 cm

## N#Cc1c[nH]cc1-c1cccc2c1OC(F)(F)O2 [Fludioxonil (250)]
[1]
  % mycelium growth relative to the control: 81%
  mycelium growth: 4.4 cm
  EFFICACY W (Abbot): 19
[5]
  % mycelium growth relative to the control: 100%
  mycelium growth: 5.4 cm
  EFFICACY W (Abbot): 0
[8]; V8 medium
  % mycelium growth relative to the control: 86%
[8]; V8 medium, control 8.6 cm
  mycelium growth: 7.4 cm
[8]; control W=0, no growth W=100
  EFFICACY W (Abbot): 14
[6]
  % mycelium growth relative to the control: 100%
  mycelium growth: 5.4 cm
  EFFICACY W (Abbot): 0
[9]; V8 medium
  % mycelium growth relative to the control: 73%
[9]; V8 medium, control 8.6 cm
  mycelium growth: 6.3 cm
[9]; control W=0, no growth W=100
  EFFICACY W (Abbot): 27
[2]
  % mycelium growth relative to the control: 61%
  mycelium growth: 3.3 cm
  EFFICACY W (Abbot): 39
[10]; V8 medium
  % mycelium growth relative to the control: 72%
[10]; V8 medium, control 5.4 cm
  mycelium growth: 3.9 cm
[10]; control W=0, no growth W=100
  EFFICACY W (Abbot): 28
[11]; V8 medium
  % mycelium growth relative to the control: 0%
[11]; V8 medium, control 8.6 cm
  mycelium growth: 0 cm
[11]; control W=0, no growth W=100
  EFFICACY W (Abbot): 100
[12]; V8 medium
  % mycelium growth relative to the control: 87%
[12]; V8 medium, control 3.9 cm
  mycelium growth: 3.4 cm
[12]; control W=0, no growth W=100
  EFFICACY W (Abbot): 13
[13]; V8 medium
  % mycelium growth relative to the control: 55%
[13]; V8 medium, control 8.6 cm
  mycelium growth: 4.7 cm
[13]; control W=0, no growth W=100
  EFFICACY W (Abbot): 45
[14]; V8 medium
  % mycelium growth relative to the control: 42%
[14]; V8 medium, control 1.9 cm
  mycelium growth: 0.8 cm
[14]; control W=0, no growth W=100
  EFFICACY W (Abbot): 58
[3]; Venturia inaegualis, V8 medium
  % mycelium growth relative to the control: 38%
[3]; [17]
  mycelium growth: 1.1 cm
[3]; Venturia inaegualis
  EFFICACY W (Abbot): 62
[15]; V8 medium
  % mycelium growth relative to the control: 0%
[15]; V8 medium, control 8.6 cm
  mycelium growth: 0 cm
[15]; control W=0, no growth W=100
  EFFICACY W (Abbot): 100
[16]; V8 medium
  % mycelium growth relative to the control: 81%
[16]; V8 medium, control 8.6 cm
  mycelium growth: 7 cm
[16]; control W=0, no growth W=100
  EFFICACY W (Abbot): 19
[4]
  % mycelium growth relative to the control: 0%
  mycelium growth: 0 cm
  EFFICACY W (Abbot): 100
